Literature values in article PMC5131915, “Platinum(II) Iodido Complexes of 7-Azaindoles with Significant Antiproliferative Effects: An Old Story Revisited with Unexpected Outcomes” (PLoS ONE, 2016).

Key:
Settings in all cases: cited from earlier work
[1] = test system: A2780, T-47D human breast carcinoma and WiDr human colon carcinoma cell lines; parameters: method as in PMID 24900222
[2] = test system: HCT116 colon carcinoma cells
[3] = test system: HT29 colon carcinoma cells
[4] = test system: HeLa cells; parameters: method as in PMID 22225466

CC(C)N.CC(C)N.[I][Pt][I] [cis-[PtI2(ipam)2]]
times more potent than cisplatin [1]: ≤ 11 times

O=C1[O][Pt]2([NH][C@@H]3CCCC[C@H]3[NH]2)[O]C1=O [oxaliplatin]
IC50 [2]: 300 nM | IC50 [3]: 700 nM

C[NH+](C)[Pt-2]([I])([I])[NH+](C)C [trans-[PtI2(L1)2]]
factor by which activity of cisplatin is exceeded [4]: ~6
